Laboratory results from paper PMC12444563 (ACS Omega, 2025).
Where two headings read alike, the source gives them in different places.

Experiments:
[1] = pH stability assay (buffers pH 5.4 and 7.4, UHPLC-HRMS); format: physicochemical; details: 37 °C, average of two replicates
Description: The pH stability assay was performed by incubating compounds 1–4 at 37 °C in buffers at pH 5.4 and 7.4 under gentle shaking conditions. More specifically, a solution of 20 mM AcONa and 1 mM EDTA in mQ water was used as a pH 5.4 buffer. A solution of PBS tablets in mQ water was used as a pH 7.4 buffer. A 1 mM stock solution of compounds 1–4 in dry DMSO was prepared and a […] solution was then obtained by dilution of 5.85 μL of the stock solution in 44.15 μL of dry DMSO. Then, 6 μL of the […] compound solution was diluted into 135 μL of the desired buffer, and the solution was incubated at 37 °C under gently shaking conditions. Samples aliquots (10 μL) were taken out at 15, 30 min and 1, 2, and 4 h and quenched with 10 μL of acetonitrile. The solutions were then injected in UHPLC-HRMS to monitor the stability of compounds 1–4 under different pH conditions. UHPLC-MS analyses were carried out as previously described for the Cathepsin B cleavage assay. The percentage of the residual compound was calculated as described above.
The stability of compounds 1–4 and of the free drug PTX was evaluated in vitro by UHPLC-Orbitrap analysis incubating the samples at 37 °C in buffer solutions at pH 5.4, to simulate the pH inside the cancer cells, and at physiological pH 7.4. The same buffer of the Cathepsin B cleavage assay was used for the test at pH 5.4. The percentage of residual compounds 1–4 was measured over time by calculating the ratio between the areas of the peak of the full compound at the desired time point and at time zero, and the results were compared with the percentage of residual compounds 1–4 calculated during the Cathepsin B cleavage assay (Tables S6).

[2] = molecular target: T1, bovine spleen Cathepsin B (Bos taurus, UniProt P07688); experiment: Cathepsin B cleavage assay (UHPLC-HRMS Orbitrap analysis); format: biochemical; details: for % residual compound, Average %: 37 °C, pH 5.4, 5 μM, triplicate
T1 construct: bovine spleen Cathepsin B (SigmaAldrich C6286, ≥10 units/mg protein); purchased SigmaAldrich C6286; host or cells: bovine spleen (tissue-derived)
Description: The Cathepsin B cleavage assay was performed by incubating compounds 1–4 at 37 °C under gently shaking conditions in the presence of the active form of Cathepsin B. More specifically, 122.4 μL of an enzyme-activating solution (composed of 7.48 mg of L-cysteine dissolved in 2 mL of a buffer solution containing 20 mM NaOAc, 1 mM EDTA, pH 5.4 to give a final cysteine concentration of 30.88 mM) was mixed with 12.6 μL of enzyme stock solution, previously prepared by solubilization of bovine spleen Cathepsin B (SigmaAldrich C6286, ≥10 units/mg protein) in 1 mL of buffer solution (without cysteine) to give a concentration of enzyme stock solution of 12 units/mL. After the dilution, the final concentration of Cathepsin B was 1.12 u/mL. Then, the diluted enzyme solution was incubated at 37 °C for 15 min to activate Cathepsin B. After 15 min, 6 μL of 117 μM compound solution, previously prepared by diluting 5.85 μL of 1 mM stock solution of the compound in 44.15 μL of dry DMSO (giving a 117 μM solution), was added to the test tube and the cleavage assay solution was incubated at 37 °C under gentle shaking conditions. […] The solutions were then centrifuged for 10 min at 6000 rpm. Blank solutions were prepared for each compound by dilution of 6 μL of a 117 μM compound solution into 135 μL of an enzyme-activating solution. UHPLC-MS analyses were carried out using a Vanquish UHPLC System (Thermo Fisher Scientific) and Orbitrap Exploris 120 (Thermo Fisher Scientific). Thermo Scientific Xcalibur software was used to control the instruments and acquire the data. Freestyle 1.8 software was used for processing the data. UHPLC chromatographic separations were performed on a reversed-phase column Accucore C18 50 × 2.1 mm, 2.6 μm (Thermo Fisher Scientific). A gradient system was used with the mobile phase consisting of solvent A: H2O + 0.05% formic acid and solvent B: acetonitrile. The areas of the peak of compounds 1–4 in the extracted ion chromatogram were used to evaluate the kinetics of the cleavage process. The percentage of residual compound was calculated as the ratio between the areas of the peak of the full compound at the desired time point and in the blank analysis. %Residualcompound=areacompoundatthedesiredtimepoint/areacompoundintheblanksolution×100

[3] = Liver S9 fraction stability assay, rat; format: in vitro ADME; details: 37 °C; for remaining at 0.5 h, 1 μM / remaining at 1.5 h, 1 μM: male, liver S9 fraction, read-out: S9 stability (matrix: rat) % remaining; for remaining at 0.5 h, 1 μM: 30 min
Description: The plasma stability assays were performed by Selvita SA (Krakow, Poland) following the protocol described in the Supporting Information. For the use of human plasma, consent was obtained from the subject or from the next of kin.
9. Plasma stability assays […]
Protocol for S9 fraction: a stock solution of compounds 1-4 in DMSO was incubated in human (male, pooled, commercially obtained from Xeno-tech lot: 2310104) and rat (male, pooled, commercially obtained from Xeno-tech (lot: 2210317)) S9 fraction at a final concentration of 1 μM (final concentration of DMSO = 0.5 %). The samples were incubated at 37 °C with a shaking of 450 rpm.
Aliquots of the samples were analyzed at time 0, 30 and 90 minutes by LC-MS/MS analysis.
The areas of the peak of the compounds 1-4 in the LC chromatogram were used to evaluate stability profile. The percentage of residual compounds 1-4 was calculated as the ratio between the area of the peak of the analyte and the area of the internal standard.
% residual compound = Area analyte ∙ 100
Table S7. LC-MS data of the stability assays in plasma extracts of compound 1.
Stability assays compound 1
Time Plasma stability Plasma stability S9 stability S9 stability
(min.) (matrix: rat) (matrix: human) Time (min.) (matrix: rat) (matrix: human) % remaining % remaining % remaining % remaining
Table S8. LC-MS data of the stability assays in plasma extracts of compound 2.
Stability assays compound 2

[4] = 2 min incubation with Cathepsin B
[5] = 15 min incubation with Cathepsin B
[6] = 30 min incubation with Cathepsin B
[7] = 60 min incubation with Cathepsin B
[8] = 120 min incubation with Cathepsin B

SMILES	Stability pH 7.4, % residual compound ([1]; pH 7.4 PBS, 120 min) [%]	% residual compound, Average % [2, 4] [%]	% residual compound, Average % [2, 5] [%]	% residual compound, Average % [2, 6] [%]	% residual compound, Average % [2, 7] [%]	% residual compound, Average % [2, 8] [%]	% residual compound, % R1 ([2]; replicate R1, 2 min) [%]	% residual compound, % R1 ([2]; replicate R1, 15 min) [%]	% residual compound, % R1 ([2]; replicate R1, 30 min) [%]	% residual compound, % R1 ([2]; replicate R1, 60 min) [%]	% residual compound, % R1 ([2]; replicate R1, 120 min) [%]	% residual compound, % R1 ([2]; replicate R1, 240 min) [%]	% residual compound, % R3 ([2]; replicate R3, 2 min) [%]	% residual compound, % R3 ([2]; replicate R3, 15 min) [%]	% residual compound, % R3 ([2]; replicate R3, 30 min) [%]	% residual compound, % R3 ([2]; replicate R3, 60 min) [%]	% residual compound, % R3 ([2]; replicate R3, 120 min) [%]	% residual compound, % R3 ([2]; replicate R3, 240 min) [%]	further results
CC(=O)O[C@H]1C(=O)[C@@]2(C)[C@H]([C@H](OC(=O)c3ccccc3)[C@]3(O)C[C@H](OC(=O)[C@H](OC(=O)N(C)CCN(C)C(=O)OCc4ccc(NC(=O)[C@H](CCCNC(N)=O)NC(=O)[C@@H](NC(=O)OCC5c6ccccc6-c6ccccc65)C(C)C)cc4)[C@@H](NC(=O)c4ccccc4)c4ccccc4)C(C)=C1C3(C)C)[C@]1(OC(C)=O)CO[C@@H]1C[C@@H]2O [Compound 3, Fmoc-VCit-PABC-diamine-PTX]	95.93	99.48	89.60	88.90	82.88	80.39	91.44	87.83	70.58	80.56	76.58	81.21	106.03	90.55	97.99	89.93	81.32	71.70	remaining at 4 h, 4.98 µM ([1]; PBS pH 7.4, pH 7.4, pH 7.4 PBS, 240 min, read-out: Stability pH 7.4, % residual compound): 92%; remaining at 2 h, 4.98 µM ([1]; acetate/EDTA buffer pH 5.4, pH 5.4, pH 5.4 buffer, 120 min, read-out: Stability pH 5.4, % residual compound): 96.6%; remaining at 4 h, 4.98 µM ([1]; acetate/EDTA buffer pH 5.4, pH 5.4, pH 5.4 buffer, 240 min (4 h), read-out: Stability pH 5.4, % residual compound): 89.9%; Stability pH 5.4, % residual compound ([1]; pH 5.4 buffer, 30 min): 96.15%; Stability pH 7.4, % residual compound ([1]; pH 7.4 PBS, 30 min): 95.79%; % residual compound, Average % ([2]; 240 min (4 h) incubation with Cathepsin B): 76%; remaining at 0.5 h, 1 μM [3]: 86.5%; remaining at 1.5 h, 1 μM ([3]; 90 min (1.5 h)): 42.6%
CC(=O)O[C@H]1C(=O)[C@@]2(C)[C@H]([C@H](OC(=O)c3ccccc3)[C@]3(O)C[C@H](OC(=O)[C@H](OC(=O)N(C)CCN(C)C(=O)OCc4ccc(NC(=O)[C@H](C)NC(=O)[C@@H](NC(=O)OCC5c6ccccc6-c6ccccc65)C(C)C)cc4)[C@@H](NC(=O)c4ccccc4)c4ccccc4)C(C)=C1C3(C)C)[C@]1(OC(C)=O)CO[C@@H]1C[C@@H]2O [Compound 4, Fmoc-VA-PABC-diamine-PTX]	96.21	98.31	89.84	76.32	72.91	58.50	105.08	98.99	79.84	76.95	61.83	68.01	98.31	83.72	80.54	75.94	52.91	49.81	remaining at 0.5 h, 4.98 µM ([1]; PBS pH 7.4, pH 7.4 PBS, 30 min, read-out: Stability pH 7.4, % residual compound): 94.7%; remaining at 0.5 h, 4.98 µM ([1]; acetate/EDTA buffer pH 5.4, pH 5.4 buffer, 30 min, read-out: Stability pH 5.4, % residual compound): 90.8%; remaining at 2 h, 4.98 µM ([1]; acetate/EDTA buffer pH 5.4, pH 5.4 buffer, 120 min, read-out: Stability pH 5.4, % residual compound): 52.5%; remaining at 4 h, 4.98 µM ([1]; acetate/EDTA buffer pH 5.4, pH 5.4 buffer, 240 min (4 h), read-out: Stability pH 5.4, % residual compound): 47.5%; Stability pH 5.4, % residual compound ([1]; pH 5.4 buffer, 240 min (4 h)): 47.4%; Stability pH 7.4, % residual compound ([1]; pH 7.4 PBS, 240 min): 95.00%; S9 stability (matrix: rat) % remaining ([3]; 1 μM, 90 min (1.5 h)): 81.17%; remaining at 0.5 h, 1 μM ([3]; rat): 81.1%; remaining at 1.5 h, 1 μM ([3]; rat, 90 min (1.5 h)): 81.2%
